We go through ten molecules from patent US20250340557A1, “PYRIMIDINE DERIVATIVE” (ASKA PHARMACEUTICAL CO., LTD., priority 2022, published 2025).

Where two headings read alike, the source gives them in different places.

This assay concerns the target T1, human mPGES-1 (Homo sapiens, UniProt O14684).
T1 construct: made in house; host or cells: COS-1 cells (transient transfection; microsomal fraction used as enzyme)
T1 sequence (O14684 1-152): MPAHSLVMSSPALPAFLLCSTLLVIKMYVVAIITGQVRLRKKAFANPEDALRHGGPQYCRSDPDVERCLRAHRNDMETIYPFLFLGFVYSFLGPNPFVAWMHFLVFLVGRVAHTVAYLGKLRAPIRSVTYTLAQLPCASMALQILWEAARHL
Put plainly: Test for mPGES-1 inhibitory activity (microsomal enzyme, PGE2 EIA). In kind it is biochemical. Conditions: 4° C., 4 minutes, read-out: h mPGES1 IC50. A digest of the protocol:
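IC50 values were derived from EIA-quantified PGE2 after a 4 min, 4 °C reaction with PGH2 at 1 μM final, stopped with ferric chloride/citric acid. Beforehand, compound (2% DMSO final) sat 15 min at 4 °C with human mPGES-1 microsomes from transiently transfected COS-1 cells. Buffer was sodium phosphate pH 7.2 containing 2.5 mM reduced glutathione and 1 mM EDTA.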

[1] abbreviates: microsomes of COS-1 cells transfected with human mPGES-1 cDNA, PGH2 1 μM, PGE2 by EIA.
Where [2] appears, read: microsomes from COS-1 cells transfected with human mPGES-1 cDNA, substrate PGH2 1 μM, PGE2 measured by EIA.

Turning to `Cc1nc(-c2c(C(F)(F)F)ccc(CNC(=O)[C@H]3C[C@H](OCc4ccc(F)c(Cl)c4)C3)c2F)[nH]c(=O)c1F` [Example 227, trans-3-[(3-chloro-4-fluorobenzyl)oxy]-N-[2-fluoro-3-(5-fluoro-4-methyl-6-oxo-1,6-dihydropyrimidin-2-yl)-4-(trifluoromethyl)benzyl]cyclobutane-1-carboxamide], under setting [1], the IC50 was under 1 nM.
Regarding `CCc1nc(-c2c(C(F)(F)F)ccc(CNC(=O)[C@H]3C[C@H](OCc4cccc(C(F)(F)F)c4)C3)c2F)[nH]c(=O)c1F` [Example 233, trans-N-[3-(4-ethyl-5-fluoro-6-oxo-1,6-dihydropyrimidin-2-yl)-2-fluoro-4-(trifluoromethyl)benzyl]-3-{[3-(trifluoromethyl)benzyl]oxy}cyclobutane-1-carboxamide], under setting [1], the half-inhibitory concentration (IC50) was under 1 nM.
In the case of `CCc1nc(-c2c(C(F)(F)F)ccc(CNC(=O)[C@H]3C[C@H](OCc4ccc(F)cc4Cl)C3)c2F)[nH]c(=O)c1F` [Example 241, trans-3-[(2-chloro-4-fluorobenzyl)oxy]-N-[3-(4-ethyl-5-fluoro-6-oxo-1,6-dihydropyrimidin-2-yl)-2-fluoro-4-(trifluoromethyl)benzyl]cyclobutane-1-carboxamide], the IC50 under setting [1] was under 1 nM.
For the molecule `Cc1nc(-c2c(C(F)(F)F)ccc(CNC(=O)[C@H]3C[C@H](OCc4ccc(F)cc4F)C3)c2F)[nH]c(=O)c1F` [Example 218, trans-3-[(2,4-difluorobenzyl)oxy]-N-[2-fluoro-3-(5-fluoro-4-methyl-6-oxo-1,6-dihydropyrimidin-2-yl)-4-(trifluoromethyl)benzyl]cyclobutane-1-carboxamide], the concentration for half-maximal inhibition (IC50) under setting [1] was determined as 13 nM.
For the molecule `O=c1cc(C(F)F)nc(-c2c(C(F)(F)F)ccc(CNC(=O)[C@H]3C[C@H](OCc4ccc(F)cc4F)C3)c2F)[nH]1` [Example 167, trans-3-[(2,4-difluorobenzyl)oxy]-N-{3-[4-(difluoromethyl)-6-oxo-1,6-dihydropyrimidin-2-yl]-2-fluoro-4-(trifluoromethyl)benzyl}cyclobutane-1-carboxamide], the IC50 under setting [1] is under 1 nM.
On to `COc1cc(N2CCC(C(=O)NCc3ccc(C(F)(F)F)c(-c4nc(C)cc(=O)[nH]4)c3F)CC2)ccc1Cl` [Example 93, 1-(4-chloro-3-methoxyphenyl)-N-[2-fluoro-3-(4-methyl-6-oxo-1,6-dihydropyrimidin-2-yl)-4-(trifluoromethyl)benzyl]piperidine-4-carboxamide], for which the half-inhibitory concentration (IC50) under setting [2] came to 1.4 nM.
As to `O=C(NCc1ccc(C(F)(F)F)c(-c2nc(C(F)(F)F)cc(=O)[nH]2)c1F)C1CCN(c2ccc(C(F)(F)F)cn2)CC1` [Example 20, N-{2-fluoro-3-[6-oxo-4-(trifluoromethyl)-1,6-dihydropyrimidin-2-yl]-4-(trifluoromethyl)benzyl}-1-[5-(trifluoromethyl)pyridin-2-yl]piperidine-4-carboxamide], the half-maximal inhibitory concentration (IC50) under setting [2] is under 1 nM.
For `CCc1cc(=O)[nH]c(-c2c(C(F)(F)F)ccc(CNC(=O)[C@H]3C[C@H](OCc4cc(Cl)ccc4F)C3)c2F)n1` [Example 209, trans-3-[(5-chloro-2-fluorobenzyl)oxy]-N-[3-(4-ethyl-6-oxo-1,6-dihydropyrimidin-2-yl)-2-fluoro-4-(trifluoromethyl)benzyl]cyclobutane-1-carboxamide], the half-inhibitory concentration (IC50) under setting [1] stood at 8.8 nM.
On the same count and under the same terms, then `O=c1cc(C(F)(F)F)nc(-c2c(C(F)(F)F)ccc(CNC(=O)[C@H]3C[C@@H](Oc4ccc(C(F)(F)F)cn4)C3)c2F)[nH]1` [Example 250, cis-N-{2-fluoro-3-[6-oxo-4-(trifluoromethyl)-1,6-dihydropyrimidin-2-yl]-4-(trifluoromethyl)benzyl}-3-{[5-(trifluoromethyl)pyridin-2-yl]oxy}cyclobutane-1-carboxamide], with under 1 nM; and `O=c1cc(-c2ccc(C(F)(F)F)cn2)nc(-c2c(C(F)(F)F)ccc(CNS(=O)(=O)c3ccc(-c4ccccc4)cc3)c2F)[nH]1` [Example 271, N-(2-fluoro-3-{6-oxo-4-[5-(trifluoromethyl)pyridin-2-yl]-1,6-dihydropyrimidin-2-yl}-4-(trifluoromethyl)benzyl)-[1,1′-biphenyl]-4-sulfonamide], with 76 nM.
